Source: patent US20230085307A1, “PYRIDAZINONE COMPOUND AND HERBICIDE” (NISSAN CHEMICAL CORPORATION, priority 2019, published 2023)

Experiments:
rice flat sedge = assay: Test Example 3: herbicidal effect by foliage application, Wagner pot (Table 18, symbol E); format: in vivo, rice flat sedge (Cyperus iria); conditions: 320 g/ha
Summary of the method: (§1)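 Plants were sown in alluvial soil held under 0.1–0.5 cm standing water and grown 14 days in a greenhouse at 25–30 °C. An emulsifiable formulation, water-diluted to the set dose, was then sprayed onto the foliage, and effects were scored three weeks later using previously defined criteria.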

barnyard grass [1] = assay: Test Example 5: herbicidal effect by foliage application, plastic box (Table 20, symbol H); format: in vivo, barnyard grass (Echinochloa crus-galli); conditions: foliage application, 320 g/ha
Summary of the method: (§2)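 Foliar spray test: emulsion formulation diluted in water to a set application rate, sprayed onto 14-day-old plants raised in diluvial soil at 25° C to 30° C under glass. Both herbicidal effect and crop effect rated visually three weeks later.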

windgrass [2] = assay: Test Example 5: herbicidal effect by foliage application, plastic box (Table 20, symbol L); format: in vivo, windgrass (Apera spica-venti); conditions: foliage application, 320 g/ha
Summary of the method: as §2

windgrass [3] = assay: Test Example 4: herbicidal effect by soil treatment (Table 19, symbol L); format: in vivo, windgrass (Apera spica-venti)
Summary of the method: (§3)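 Step 1: sow seeds in sterilized diluvial soil, cover ~1.5 cm. Step 2: spray diluted emulsion onto soil surface at predetermined rate. Step 3: greenhouse, 25–30° C, three weeks. Step 4: grade effect on each plant by earlier criteria.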

velvetleaf [4] = assay: Test Example 5: herbicidal effect by foliage application, plastic box (Table 20, symbol M); format: in vivo, velvetleaf (Abutilon theophrasti); conditions: foliage application, 320 g/ha
Summary of the method: as §2

southern crabgrass [5] = assay: Test Example 5: herbicidal effect by foliage application, plastic box (Table 20, symbol F); format: in vivo, southern crabgrass (Digitaria ciliaris); conditions: foliage application, 320 g/ha
Summary of the method: as §2

persian speedwell [6] = assay: Test Example 4: herbicidal effect by soil treatment (Table 19, symbol R); format: in vivo, Persian speedwell (Veronica persica)
Summary of the method: as §3

late watergrass = assay: Test Example 1: herbicidal activity, application before weed generation under submerged conditions (Table 16, symbol A); format: in vivo, late watergrass (Echinochloa oryzicola)
Summary of the method: (§4)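 Submerged Wagner pots (alluvial soil, 4 cm water) sown with weed seeds and planted with 2.5-leaf rice seedlings; emulsifiable concentrate diluted in water applied to water surface on sowing day. Held in greenhouse at 25-30 °C; injury scored 0-5 by herbicidal rate after three weeks.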

green foxtail [7] = assay: Test Example 4: herbicidal effect by soil treatment (Table 19, symbol G); format: in vivo, green foxtail (Setaria viridis)
Summary of the method: as §3

persian speedwell [8] = assay: Test Example 5: herbicidal effect by foliage application, plastic box (Table 20, symbol R); format: in vivo, Persian speedwell (Veronica persica); conditions: foliage application, 320 g/ha
Summary of the method: as §2

blackgrass [9] = assay: Test Example 5: herbicidal effect by foliage application, plastic box (Table 20, symbol J); format: in vivo, blackgrass (Alopecurus myosuroides); conditions: foliage application, 320 g/ha
Summary of the method: as §2

barnyard grass [10] = assay: Test Example 3: herbicidal effect by foliage application, Wagner pot (Table 18, symbol H); format: in vivo, barnyard grass (Echinochloa crus-galli); conditions: 320 g/ha
Summary of the method: as §1

green foxtail [11] = assay: Test Example 5: herbicidal effect by foliage application, plastic box (Table 20, symbol G); format: in vivo, green foxtail (Setaria viridis); conditions: foliage application, 320 g/ha
Summary of the method: as §2

Italian ryegrass [12] = assay: Test Example 4: herbicidal effect by soil treatment (Table 19, symbol K); format: in vivo, Italian ryegrass (Lolium multiflorum)
Summary of the method: as §3

Japanese bulrush = assay: Test Example 1: herbicidal activity, application before weed generation under submerged conditions (Table 16, symbol B); format: in vivo, Japanese bulrush (Schoenoplectus juncoides)
Summary of the method: as §4

wild oat [13] = assay: Test Example 5: herbicidal effect by foliage application, plastic box (Table 20, symbol I); format: in vivo, wild oat (Avena fatua); conditions: foliage application, 320 g/ha
Summary of the method: as §2

barnyard grass [14] = assay: Test Example 4: herbicidal effect by soil treatment (Table 19, symbol H); format: in vivo, barnyard grass (Echinochloa crus-galli)
Summary of the method: as §3

Italian ryegrass [15] = assay: Test Example 5: herbicidal effect by foliage application, plastic box (Table 20, symbol K); format: in vivo, Italian ryegrass (Lolium multiflorum); conditions: foliage application, 320 g/ha
Summary of the method: as §2

Chinese sprangletop = assay: Test Example 3: herbicidal effect by foliage application, Wagner pot (Table 18, symbol D); format: in vivo, chinese sprangletop (Leptochloa chinensis); conditions: 320 g/ha
Summary of the method: as §1

redroot pigweed = assay: Test Example 4: herbicidal effect by soil treatment (Table 19, symbol N); format: in vivo, redroot pigweed (Amaranthus retroflexus)
Summary of the method: as §3

velvetleaf [16] = assay: Test Example 4: herbicidal effect by soil treatment (Table 19, symbol M); format: in vivo, velvetleaf (Abutilon theophrasti)
Summary of the method: as §3

wild oat [17] = assay: Test Example 4: herbicidal effect by soil treatment (Table 19, symbol I); format: in vivo, wild oat (Avena fatua)
Summary of the method: as §3

lambsquarters [18] = assay: Test Example 5: herbicidal effect by foliage application, plastic box (Table 20, symbol O); format: in vivo, lambsquarters (Chenopodium album); conditions: foliage application, 320 g/ha
Summary of the method: as §2

chickweed = assay: Test Example 4: herbicidal effect by soil treatment (Table 19, symbol P); format: in vivo, common chickweed (Stellaria media)
Summary of the method: as §3

lambsquarters [19] = assay: Test Example 4: herbicidal effect by soil treatment (Table 19, symbol O); format: in vivo, lambsquarters (Chenopodium album)
Summary of the method: as §3

oval-leafed pondweed = assay: Test Example 1: herbicidal activity, application before weed generation under submerged conditions (Table 16, symbol C); format: in vivo, oval-leafed pondweed (Monochoria vaginalis)
Summary of the method: as §4

blackgrass [20] = assay: Test Example 4: herbicidal effect by soil treatment (Table 19, symbol J); format: in vivo, blackgrass (Alopecurus myosuroides)
Summary of the method: as §3

southern crabgrass [21] = assay: Test Example 4: herbicidal effect by soil treatment (Table 19, symbol F); format: in vivo, southern crabgrass (Digitaria ciliaris)
Summary of the method: as §3

[22] = amount of applied herbicide 320 g/ha

Structure (SMILES): Cc1nn(C)c(=O)c(-c2c(-c3ccc(C(F)(F)F)cc3)sc3ccc(F)cc23)c1O [2-020]
- herbicidal effect on E (rice flat sedge), rating 0-5 (rice flat sedge): 5 (Herbicidal rate of 90% or more (almost completely withered))
- effect on barnyard grass (H) (barnyard grass [1]; 3 weeks after application): 5 (Herbicidal rate of 90% or more (almost completely withered))
- effect on windgrass (L) (windgrass [2]; 3 weeks after application): 5 (Herbicidal rate of 90% or more (almost completely withered))
- herbicidal effect rating, L: windgrass (windgrass [3]; 320 g/ha): 5 (Herbicidal rate of 90% or more (almost completely withered))
- effect on velvetleaf (M) (velvetleaf [4]; 3 weeks after application): 5 (Herbicidal rate of 90% or more (almost completely withered))
- effect on southern crabgrass (F) (southern crabgrass [5]; 3 weeks after application): 5 (Herbicidal rate of 90% or more (almost completely withered))
- herbicidal effect rating, R: persian speedwell (persian speedwell [6]; 320 g/ha): 5 (Herbicidal rate of 90% or more (almost completely withered))
- Herbicidal effect on A: late watergrass (grade 0-5) (late watergrass; 320 g/ha applied herbicide): 0 (Herbicidal rate of 5% or less (almost no effect))
- herbicidal effect rating, G: green foxtail (green foxtail [7]; 320 g/ha): 4 (Herbicidal rate of 70% or more and less than 90%)
- effect on persian speedwell (R) (persian speedwell [8]; 3 weeks after application): 5 (Herbicidal rate of 90% or more (almost completely withered))
- effect on blackgrass (J) (blackgrass [9]; 3 weeks after application): 3 (Herbicidal rate of 40% or more and less than 70%)
- herbicidal effect on H (barnyard grass), rating 0-5 (barnyard grass [10]): 5 (Herbicidal rate of 90% or more (almost completely withered))
- effect on green foxtail (G) (green foxtail [11]; 3 weeks after application): 5 (Herbicidal rate of 90% or more (almost completely withered))
- herbicidal effect rating, K: Italian ryegrass (Italian ryegrass [12]; 320 g/ha): 5 (Herbicidal rate of 90% or more (almost completely withered))
- Herbicidal effect on B: Japanese bulrush (grade 0-5) (Japanese bulrush; 320 g/ha applied herbicide): 2 (Herbicidal rate of 20% or more and less than 40%)
- effect on wild oat (I) (wild oat [13]; 3 weeks after application): 4 (Herbicidal rate of 70% or more and less than 90%)
- herbicidal effect rating, H: barnyard grass (barnyard grass [14]; 320 g/ha): 2 (Herbicidal rate of 20% or more and less than 40%)
- effect on Italian ryegrass (K) (Italian ryegrass [15]; 3 weeks after application): 5 (Herbicidal rate of 90% or more (almost completely withered))
- herbicidal effect on D (Chinese sprangletop), rating 0-5 (Chinese sprangletop): 3 (Herbicidal rate of 40% or more and less than 70%)
- herbicidal effect rating, N: redroot pigweed (redroot pigweed; 320 g/ha): 5 (Herbicidal rate of 90% or more (almost completely withered))
- herbicidal effect rating, M: velvetleaf (velvetleaf [16]; 320 g/ha): 3 (Herbicidal rate of 40% or more and less than 70%)
- herbicidal effect rating, I: wild oat (wild oat [17]; 320 g/ha): 0 (Herbicidal rate of 5% or less (almost no effect))
- effect on lambsquarters (O) (lambsquarters [18]; 3 weeks after application): 5 (Herbicidal rate of 90% or more (almost completely withered))
- herbicidal effect rating, P: chickweed (chickweed; 320 g/ha): 3 (Herbicidal rate of 40% or more and less than 70%)
- herbicidal effect rating, O: lambsquarters (lambsquarters [19]; 320 g/ha): 5 (Herbicidal rate of 90% or more (almost completely withered))
- Herbicidal effect on C: oval-leafed pondweed (grade 0-5) (oval-leafed pondweed; 320 g/ha applied herbicide): 0 (Herbicidal rate of 5% or less (almost no effect))
- herbicidal effect rating, J: blackgrass (blackgrass [20]; 320 g/ha): 3 (Herbicidal rate of 40% or more and less than 70%)
- herbicidal effect rating, F: southern crabgrass (southern crabgrass [21]; 320 g/ha): 3 (Herbicidal rate of 40% or more and less than 70%)

Structure (SMILES): CCOc1ccccc1-c1sc2cc(OC)c(Cl)cc2c1-c1c(O)c(C)nn(C)c1=O [5-072]
- herbicidal effect on rice flat sedge (E) (rice flat sedge): 5 (Herbicidal rate of 90% or more (almost completely withered))
- herbicidal effect on barnyard grass (H) (barnyard grass [1]; three weeks after application): 5 (Herbicidal rate of 90% or more (almost completely withered))
- herbicidal effect on windgrass (L) (windgrass [2]; three weeks after application): 5 (Herbicidal rate of 90% or more (almost completely withered))
- L: windgrass, herbicidal effect grade (windgrass [3]; [22]): 0 (Herbicidal rate of 5% or less (almost no effect))
- herbicidal effect on velvetleaf (M) (velvetleaf [4]; three weeks after application): 5 (Herbicidal rate of 90% or more (almost completely withered))
- herbicidal effect on southern crabgrass (F) (southern crabgrass [5]; three weeks after application): 5 (Herbicidal rate of 90% or more (almost completely withered))
- R: persian speedwell, herbicidal effect grade (persian speedwell [6]; [22]): 3 (Herbicidal rate of 40% or more and less than 70%)
- Herbicidal effect, A: late watergrass (late watergrass; [22]): 0 (Herbicidal rate of 5% or less (almost no effect))
- G: green foxtail, herbicidal effect grade (green foxtail [7]; [22]): 4 (Herbicidal rate of 70% or more and less than 90%)
- herbicidal effect on persian speedwell (R) (persian speedwell [8]; three weeks after application): 5 (Herbicidal rate of 90% or more (almost completely withered))
- herbicidal effect on blackgrass (J) (blackgrass [9]; three weeks after application): 3 (Herbicidal rate of 40% or more and less than 70%)
- herbicidal effect on barnyard grass (H) (barnyard grass [10]): 5 (Herbicidal rate of 90% or more (almost completely withered))
- herbicidal effect on green foxtail (G) (green foxtail [11]; three weeks after application): 5 (Herbicidal rate of 90% or more (almost completely withered))
- K: Italian ryegrass, herbicidal effect grade (Italian ryegrass [12]; [22]): 0 (Herbicidal rate of 5% or less (almost no effect))
- Herbicidal effect, B: Japanese bulrush (Japanese bulrush; [22]): 2 (Herbicidal rate of 20% or more and less than 40%)
- herbicidal effect on wild oat (I) (wild oat [13]; three weeks after application): 2 (Herbicidal rate of 20% or more and less than 40%)
- H: barnyard grass, herbicidal effect grade (barnyard grass [14]; [22]): 1 (Herbicidal rate of 5% or more and less than 20%)
- herbicidal effect on Italian ryegrass (K) (Italian ryegrass [15]; three weeks after application): 0 (Herbicidal rate of 5% or less (almost no effect))
- herbicidal effect on Chinese sprangletop (D) (Chinese sprangletop): 3 (Herbicidal rate of 40% or more and less than 70%)
- N: redroot pigweed, herbicidal effect grade (redroot pigweed; [22]): 3 (Herbicidal rate of 40% or more and less than 70%)
- M: velvetleaf, herbicidal effect grade (velvetleaf [16]; [22]): 1 (Herbicidal rate of 5% or more and less than 20%)
- I: wild oat, herbicidal effect grade (wild oat [17]; [22]): 0 (Herbicidal rate of 5% or less (almost no effect))
- herbicidal effect on lambsquarters (O) (lambsquarters [18]; three weeks after application): 4 (Herbicidal rate of 70% or more and less than 90%)
- P: chickweed, herbicidal effect grade (chickweed; [22]): 2 (Herbicidal rate of 20% or more and less than 40%)
- O: lambsquarters, herbicidal effect grade (lambsquarters [19]; [22]): 3 (Herbicidal rate of 40% or more and less than 70%)
- Herbicidal effect, C: oval-leafed pondweed (oval-leafed pondweed; [22]): 0 (Herbicidal rate of 5% or less (almost no effect))
- J: blackgrass, herbicidal effect grade (blackgrass [20]; [22]): 0 (Herbicidal rate of 5% or less (almost no effect))
- F: southern crabgrass, herbicidal effect grade (southern crabgrass [21]; [22]): 5 (Herbicidal rate of 90% or more (almost completely withered))
